How the values were obtained:
20S-REGy complex = 20S-REGy complex (Homo sapiens, UniProt P61289); assay: Peptide degradation assay with Fluorescamine (KH-52), with REGγ; type: biochemical; details: 20S-REGγ complex, 50 µM compound, 37°C
Procedure: (§1) Degradation of the 52 amino acid peptide KH-52: […], Boulpicante et al.) by the 20S proteasome was followed by amino-acid group generation using Fluorescamine (#F9015, Sigma-Aldrich). The peptide substrate was incubated at 100µM with 25nM 20S, with or without 160nM REGγ and with different concentration of the tested compounds or DMSO. Assays were performed in 100µL in phosphate buffer (pH 6.8) and incubated at 37°C in a water bath for 8 hours. After 4, 6 and 8 hours, 22µL of sample were retrieved and added to 88µL of phosphate buffer before being stored at - 20°C prior to revelation. For the revelation, samples were thawed and filtered in a centrifuge 20min at 4°C 1kDa filters (#OD003C34, Pall Corporation). To avoid any amino group contamination, filtered were washed in phosphate buffer before use. 20µL of filtered-sample were plated in triplicates in a black 96-wells plate (#237108, Thermo Scientific) and 10µL of fluorescamine (1mg/mL, in 100% acetone) was added to the samples. The plate was placed on agitation for 1min before the reaction was stopped by adding 200µL of water to each well. The fluorescence intensity was measured using a FluoSTAR plate reader (BMG Labtech) with excitation wavelength at 355nm and emission wavelength at 460nm.
(§2) These findings were established through both in vitro degradation assays and T cell experiments. […]

20S proteasome = system: T1, 20S proteasome; assay: Proteasome Activity Assay with fluorogenic AMC substrates, without REGγ; type: biochemical, human; details: 20S proteasome not in the presence of REGγ, even at high doses
T1 construct: purified 20S proteasome from human erythrocytes; purchased Biotechne E-360-050; host or cells: human erythrocytes
Procedure: Proteasome Activity Assay - The activity of the 20S and 20S-REGγ proteasomes was followed by fluorescence using the Bz-VGR-AMC (#BML-BW9375-0005, Enzo Life Sciences) substrate at 50µM for tryspin-like activity, the Suc-LLVY-AMC (#BML-P802-0005, Enzo Life Sciences) substrate at 100µM for the chemotrypsin-like activity and the Z-LLE-AMC (#BML-ZW9345-0005, Enzo Life Sciences) substrate at 100µM for the caspase-like activity. Substrates were incubated with 0,5nM of human 20S ((#E-360-050, Biotechne) and 12,5nM of human REGγ or 2nM of human REGαβ with or without compounds at different concentrations. Purified human REGγ and REGGαβ were generously provided by Julien Marcoux and Marie-Pierre Bousquet-Dubouch. Human REGγ and REGαβ were purified according to Le Feuvre et al., 2009 from plasmids kindly provided by Olivier Coux. The activity assay was performed in 96 well plates in a final volume of 80µL. Plates were read every minute for 90 minutes with a FLUOstar plate reader (BMG Labtech). To detect fluorescence, the excitation wavelength was set to 355nm and emission wavelength at 460nm. […]

20S-REGγ proteasome = biological target: T2, 20S-REGγ proteasome (Homo sapiens, UniProt P61289); assay: Proteasome Activity Assay with fluorogenic AMC substrates, in presence of REGγ; type: biochemical; details: 0.5nM human 20S + 12.5nM human REGγ
T2 construct: made in house
T2 sequence (P61289 whole entry): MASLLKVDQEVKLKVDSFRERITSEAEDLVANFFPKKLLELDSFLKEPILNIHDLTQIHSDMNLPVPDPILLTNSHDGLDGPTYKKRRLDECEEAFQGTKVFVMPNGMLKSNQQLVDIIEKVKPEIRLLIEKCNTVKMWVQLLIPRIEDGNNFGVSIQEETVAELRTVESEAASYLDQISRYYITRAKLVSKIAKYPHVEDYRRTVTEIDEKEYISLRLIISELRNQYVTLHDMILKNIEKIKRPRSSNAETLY
Procedure: Proteasome Activity Assay - The activity of the 20S and 20S-REGγ proteasomes was followed by fluorescence using the Bz-VGR-AMC (#BML-BW9375-0005, Enzo Life Sciences) substrate at 50µM for tryspin-like activity, the Suc-LLVY-AMC (#BML-P802-0005, Enzo Life Sciences) substrate at 100µM for the chemotrypsin-like activity and the Z-LLE-AMC (#BML-ZW9345-0005, Enzo Life Sciences) substrate at 100µM for the caspase-like activity. Substrates were incubated with 0,5nM of human 20S ((#E-360-050, Biotechne) and 12,5nM of human REGγ or 2nM of human REGαβ with or without compounds at different concentrations. Purified human REGγ and REGGαβ were generously provided by Julien Marcoux and Marie-Pierre Bousquet-Dubouch. Human REGγ and REGαβ were purified according to Le Feuvre et al., 2009 from plasmids kindly provided by Olivier Coux. The activity assay was performed in 96 well plates in a final volume of 80µL. Plates were read every minute for 90 minutes with a FLUOstar plate reader (BMG Labtech). To detect fluorescence, the excitation wavelength was set to 355nm and emission wavelength at 460nm.
The activity of the 20S and 20S-REGγ proteasomes was followed by fluorescence using the Bz-VGR-AMC (#BML-BW9375-0005, Enzo Life Sciences) substrate at 50µM for trypsin-like activity, the Suc-LLVY-AMC (#BML-P802-0005, Enzo Life Sciences) substrate at 100µM for the chemotrypsin-like activity and the Z-LLE-AMC (#BML-ZW9345-0005, Enzo Life Sciences) substrate at 100µM for the caspase-like activity. […]

[1] = system: human constitutive 20S proteasome (h20S); assay: Peptide degradation assay with Fluorescamine (KH-52), 20S alone; type: biochemical; details: different concentrations tested, 37°C
Procedure: as §1, §2

Chain of 20S-REGy complex (P61289 whole entry, one chain of several): as the sequence (P61289 whole entry) above

`Cc1ccc(N=Nc2ccc(C)cc2NC(=O)Nc2ccccc2F)cc1` [compound 58] was tested, and the “rate of peptide bond hydrolysis of KH-52” value (20S-REGy complex) was “notably decelerated the rate of peptide bond hydrolysis”, the “inhibitory effect on the three activities (trypsin-like, caspase-like, chymotrypsin-like)” value (20S proteasome) was “did not exhibit any inhibitory effect” and the “concentration at which inhibition of trypsin-like activity starts” value (20S-REGγ proteasome; Bz-VGR-AMC 50µM, stronger effect at 100 µM) was 50 µM. The “concentration at which chymotrypsin-like activity is inhibited” value (20S-REGγ proteasome; Suc-LLVY-AMC 100µM, inhibited only at this concentration) was 100 µM, the “concentration at which inhibition of caspase-like activity starts” value (20S-REGγ proteasome; Z-LLE-AMC 100µM, stronger effect at 100 µM) was 50 µM and the “rate of peptide bond hydrolysis of KH-52” value [1] was “no impact”.

From patent publication EP4537820A1, “COMPOUND AND COMBINATIONS COMPRISING SAID COMPOUND TO IMPROVE IMMUNE RESPONSE” (Institut Gustave-Roussy, priority 2023, dated 2025)
